Target: T1, Fatty acid amide hydrolase (FAAH) (Mus musculus, UniProt O08914)
T1 construct: endogenous FAAH in BV2 microglial cell membrane fraction
T1 sequence (O08914 1-579): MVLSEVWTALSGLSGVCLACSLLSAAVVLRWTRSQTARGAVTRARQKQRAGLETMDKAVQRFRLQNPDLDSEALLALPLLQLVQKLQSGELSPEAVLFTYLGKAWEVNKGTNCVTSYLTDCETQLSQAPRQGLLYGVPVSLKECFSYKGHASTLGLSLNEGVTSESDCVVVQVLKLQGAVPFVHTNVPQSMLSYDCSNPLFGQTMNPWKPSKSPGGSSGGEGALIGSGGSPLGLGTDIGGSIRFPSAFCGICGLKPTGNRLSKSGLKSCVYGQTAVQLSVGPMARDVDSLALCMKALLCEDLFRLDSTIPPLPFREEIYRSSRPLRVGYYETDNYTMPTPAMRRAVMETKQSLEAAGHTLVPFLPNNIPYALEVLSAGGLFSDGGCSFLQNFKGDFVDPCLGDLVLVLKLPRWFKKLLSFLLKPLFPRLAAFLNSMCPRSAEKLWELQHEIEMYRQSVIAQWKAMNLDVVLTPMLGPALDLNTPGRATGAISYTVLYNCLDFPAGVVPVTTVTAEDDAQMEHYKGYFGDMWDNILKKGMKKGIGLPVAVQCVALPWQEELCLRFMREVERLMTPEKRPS
Assay: radiolabeled AEA hydrolysis in BV2 membranes; blocked by FAAH inhibitors, reduced […] by FAAH siRNA
Assay type: cell-based

For `CCCCC/C=C\C/C=C\C/C=C\C/C=C\CCCC(=O)NCCO` [anandamide], the “radiolabeled AEA hydrolysis in BV2 membranes; blocked by FAAH inhibitors, reduce” value was “These results indicated that all AEA hydrolysis activity was attributed to FAAH in BV2 microglial cells”.
